Experimental data reported in PubChem BioAssay (NCI).
Values joined by “and” are separate entries in the source; they are usually repeats but may differ in a detail not shown here. Equal values may be shown once.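 Values below derive from 48-hour exposures of cells grown in 96-well plates, with endpoints linearly interpolated between the two concentrations bracketing the appropriate inhibition level. At the GI50, growth is halved. Definition used: TGI = concentration required for complete inhibition of growth.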 Where a SMILES comes first, the peptide text is derived from it. The star is where a group is joined. Cbz = O=C(OCc1ccccc1)*; Boc = CC(C)(C)OC(=O)*; OSu = O=C1CCC(=O)N1O*; Bn = c1ccc(C*)cc1

How the values were obtained:
Test in all cases: inhibition of tumour cell growth, NCI panel, 48 h
CAKI-1 renal = system: CAKI-1 renal
HCC-2998 colon = system: HCC-2998 colon
HCT-15 colon = system: HCT-15 colon
K-562 leukemia = system: K-562 leukemia
LOX IMVI melanoma = system: LOX IMVI melanoma
M14 melanoma = system: M14 melanoma
SN12C renal = system: SN12C renal
A498 renal = system: A498 renal
HS 578T breast = system: HS 578T breast
MDA-MB-231 breast = system: MDA-MB-231 breast
NCI/ADR-RES ovarian = system: NCI/ADR-RES ovarian

Compound | TGI (CAKI-1 renal) | TGI (HCC-2998 colon) [µM] | TGI (HCT-15 colon) [µM] | TGI (K-562 leukemia) [µM] | TGI (LOX IMVI melanoma) [µM] | TGI (M14 melanoma) | TGI (SN12C renal) | GI50 (A498 renal) | TGI (A498 renal) | GI50 (CAKI-1 renal) [µM] | GI50 (HCC-2998 colon) [µM] | GI50 (HCT-15 colon) | GI50 (HS 578T breast) | TGI (HS 578T breast) | GI50 (M14 melanoma) [µM] | GI50 (MDA-MB-231 breast) [µM] | TGI (MDA-MB-231 breast) [µM] | GI50 (NCI/ADR-RES ovarian) | TGI (NCI/ADR-RES ovarian) | GI50 (SN12C renal)
CC1=CCN(c2ccccn2)OC1c1ccccc1 (stereo not given) | > 100 µM | > 100 | > 100 | > 100 | > 100 | > 100 µM | > 100 µM | – | – | – | – | – | – | – | – | – | – | – | – | –
CC[C@@]1(O)C(=O)OCc2c1cc1n(c2=O)Cc2c-1nc1ccccc1c2C=Nc1ccccc1N[C@@H]1c2cc3c(cc2[C@@H](c2cc(OC)c(O)c(OC)c2)[C@H]2C(=O)OC[C@@H]21)OCO3 | 0.807 µM and 0.494 µM | 24.6 | – | > 100 | – | 6.02 µM and 1.03 µM | > 100 µM and 24.6 µM | 0.325 µM and 0.142 µM | 1.79 µM and 0.68 µM | 0.0138 | 10.3 | 0.88 µM and 0.19 µM | 4.87 µM and 0.875 µM | > 100 µM | 0.0322 | 7.04 | > 49.8 | 0.0689 µM and 0.24 µM | 2.88 µM and 2.78 µM | 0.0632 µM and 0.0234 µM
CC[C@@]12CCC(=S)N(CCSc3ccccc3)[C@@H]1c1c(n(S(=O)(=O)c3ccc(OC)cc3)c3ccccc13)CC2 | > 100 µM | – | > 100 | > 100 | > 100 | > 100 µM | > 100 µM | – | > 100 µM | – | – | – | – | > 100 µM | – | – | > 100 | – | > 100 µM | –
CCCCCCCCCCCCC1N=C(N)N2CCCC2=C1C(=O)OC (stereo not given) | 9.03 µM | 3.25 | 3.11 | 2.91 | – | 3.16 µM | – | – | 47.1 µM | – | – | – | – | 4.17 µM | – | – | 4.38 | – | 20.4 µM | –
O=C1CNN=C(Cn2nc(-c3ccccc3)c3ccccc3c2=O)N1 | – | > 100 | > 100 | > 100 | – | > 100 µM | > 100 µM | – | > 100 µM | – | – | – | – | – | – | – | – | – | – | –
C/C(Nc1ccc(Cl)cc1)=C1/CCOC1=O | > 100 µM | > 100 | > 100 | > 100 | – | > 100 µM | > 100 µM | – | > 100 µM | – | – | – | – | > 100 µM | – | – | > 100 | – | > 100 µM | –
CC(=O)NN(c1ccccc1)C1CCN(c2ccccc2)N1C(C)=O (stereo not given) | > 10 µM | > 10 | > 10 | 7.65 | > 10 | > 10 µM | > 10 µM | – | – | – | – | – | – | > 10 µM | – | – | > 10 | – | > 10 µM | –
Clc1cc2ncn(C3CCCCO3)c2cc1Cl (stereo not given) | > 100 µM | > 100 | > 100 | > 100 | > 100 | > 100 µM | > 100 µM | – | – | – | – | – | – | 85.4 µM | – | – | > 100 | – | > 100 µM | –
COc1ccc(-c2cc(-c3ccco3)c(C#N)c(=O)[nH]2)cc1 | – | > 100 | > 100 | > 100 | > 100 | > 100 µM | > 100 µM | – | > 100 µM | – | – | – | – | – | – | – | – | – | – | –
N#Cc1c(N)nc(Sc2ccccc2N)c(C#N)c1-c1ccccc1 | > 100 µM | 38.3 | > 100 | > 100 | 41.3 | > 100 µM | – | – | – | – | – | – | – | – | – | – | 45.5 | – | 42.5 µM | –
S=c1[nH]nc(CCCCCCCCc2n[nH]c(=S)o2)o1 | > 100 µM | – | > 100 | > 100 | > 100 | > 100 µM | > 100 µM | – | > 100 µM | – | – | – | – | – | – | – | > 100 | – | > 100 µM | –
CC(=O)N1c2cc(N=NN(C)C)ccc2NC(=O)CC1C (stereo not given) | > 100 µM | > 100 | > 100 | > 100 | – | > 100 µM | > 100 µM | – | – | – | – | – | – | > 100 µM | – | – | > 100 | – | > 100 µM | –
O=S(=O)(O)c1cc(O)c(N=Nc2ccc3ccccc3c2O)c2ccccc12 | 70.6 µM | – | > 100 | 74.6 | – | 41.4 µM | > 100 µM | – | – | – | – | – | – | > 100 µM | – | – | 94.7 | – | 46.7 µM | –
Cc1ncc(CSC(=N)N)n1Cc1ccccc1 | > 100 µM | – | > 100 | > 100 | – | > 100 µM | > 100 µM | – | > 100 µM | – | – | – | – | > 100 µM | – | – | > 100 | – | > 100 µM | –
O=C(/C(=C/c1ccc(O)cc1)c1ccccc1)c1ccccc1 | 38.2 µM | 32 | 31.9 | 44.4 | 25.9 | 30.9 µM | 32.5 µM | – | 32 µM | – | – | – | – | – | – | – | – | – | – | –
COc1ccc(C23OCC(Cc4cc(OC)c(OC)cc42)C3CO)cc1OC (stereo not given) | > 100 µM | > 100 | > 100 | > 100 | > 100 | > 100 µM | – | – | > 100 µM | – | – | – | – | – | – | – | > 100 | – | > 100 µM | –
CCCCCCCCCCCCCCCC(=O)OCC1OC(n2cc(F)c(=O)[nH]c2=O)C(NC(=O)N(CCCl)N=O)C(O)C1O (stereo not given) | 20.5 µM | 11.3 | 15.1 | 25.6 | 2.24 | 11.7 µM | 15.6 µM | – | 10.1 µM | – | – | – | – | – | – | – | – | – | – | –
Cn1c(NC(=O)NC23CC4CC(CC(C4)C2)C3)nc2ccccc21 | > 100 µM | > 100 | > 100 | > 100 | > 100 | > 100 µM | > 100 µM | – | – | – | – | – | – | – | – | – | – | – | – | –
c1ccc(-c2c(-c3[nH]c4ccccc4c3-c3ccccc3)[nH]c3ccccc23)cc1 | 13.8 µM | 3.94 | 14.3 | 36.8 | 4.06 | 14.9 µM | 3.8 µM | – | – | – | – | – | – | 51.6 µM | – | – | 13.8 | – | 13.3 µM | –
C=CCOC(=O)N1c2ccc(O)cc2[C@@]23O[C@@]24[C@@H]1C#C/C=C\C#C[C@]3(O)C(=O)C[C@@H]4C | > 100 µM | > 100 | > 100 | > 100 | – | > 100 µM | > 100 µM | – | > 100 µM | – | – | – | – | > 100 µM | – | – | > 100 | – | > 100 µM | –
CCC(=C/[C@H](C)C/C=C/C(C)=C/[C@@H](C)C(=O)[C@@H](C)[C@H](O)[C@@H](C)CC)/C=C/[C@H]1CC=CC(=O)O1 | 2.88 µM | < 0.0012 | 1.78 | – | 1.22 | 0.159 µM | – | – | < 0.0012 µM | – | – | – | – | 7.02 µM and 2.38 µM | – | – | – | – | 1.65 µM and 0.39 µM | –
CC(C)(C)OC(=O)NC(Cc1ccc(OCc2ccccc2)cc1)C(=O)NC(CCCCNC(=O)OCc1ccccc1)C(=O)NC(CCCCNC(=O)OCc1ccccc1)C(=O)ON1C(=O)CCC1=O (stereo not given) (Boc-Tyr(Bn)-Lys(Cbz)-Lys(Cbz)-OSu; configuration not given here) | > 100 µM | – | > 100 | – | – | > 100 µM | – | – | – | – | – | – | – | 49 µM | – | – | – | – | > 100 µM | –
